According to PMC9020721, “Characterization of BLUF-photoreceptors present in Acinetobacter nosocomialis” (PLoS ONE, 2022):

Tests used:
AnBLUF46 = target: T1, AnBLUF46 (Acinetobacter nosocomialis, UniProt A0AA36NWK2); experiment: UV-vis absorption and fluorescence emission of the co-purified flavin; type: binding; settings: 20 mM Tris-HCl, 200 mM NaCl, pH 8.0, 15 °C; flavin as purified with the protein, fully oxidized; flavin identity assigned by the authors, no separate analysis
T1 construct: gene ANICBIBUN_11750; full length, 147 residues, N-terminal His-tag, pET28-TEV, E. coli BL21 (pLysS), Ni-NTA; tag cleavage not mentioned
T1 sequence (A0AA36NWK2 1-147): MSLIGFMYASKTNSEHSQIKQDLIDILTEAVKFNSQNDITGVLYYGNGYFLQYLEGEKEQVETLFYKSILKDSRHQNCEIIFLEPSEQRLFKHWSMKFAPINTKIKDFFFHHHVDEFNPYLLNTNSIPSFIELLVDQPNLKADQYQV

AnBLUF65 = target: T2, AnBLUF65 (Acinetobacter nosocomialis, UniProt A0AA36P071); experiment: as above; type: binding; settings: 20 mM Tris-HCl, 200 mM NaCl, pH 8.0, 15 °C; flavin as purified with the protein, fully oxidized; flavin identity assigned by the authors, no separate analysis
T2 construct: gene ANICBIBUN_09924; full length, 156 residues, N-terminal His-tag, synthetic gene in pET28a(+), E. coli BL21 (pLysS), Ni-NTA
T2 sequence (A0AA36P071 1-156): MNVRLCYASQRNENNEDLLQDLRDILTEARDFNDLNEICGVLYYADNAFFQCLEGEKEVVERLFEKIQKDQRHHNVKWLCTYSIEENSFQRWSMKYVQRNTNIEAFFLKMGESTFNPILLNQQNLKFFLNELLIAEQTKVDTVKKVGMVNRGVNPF

Structure (SMILES): Cc1cc2nc3c(=O)[nH]c(=O)nc-3n(C[C@H](O)[C@H](O)[C@H](O)COP(=O)(O)OP(=O)(O)OC[C@H]3O[C@@H](n4cnc5c(N)ncnc54)[C@H](O)[C@@H]3O)c2cc1C [FAD]
- UV-vis absorption and fluorescence emission of the co-purified flavin (AnBLUF46): blue-shifted compared with free FAD in the same working buffer
- UV-vis absorption and fluorescence emission of the co-purified flavin (AnBLUF65): blue-shifted compared with free FAD in the same working buffer
